In patent publication US11780822B2, “HDAC inhibitor solid state forms” (Viracta Subsidiary, Inc., priority 2019, dated 2023):
“Also recorded” adds a separate entry of the source. Each block holds one compound with its values, some of them ahead of it.

What was measured:
Format in all cases: physicochemical
[1] = Competitive suspension equilibrations of Form A + Form B composites; conditions: stirred overnight
Description: Objective: Determine the fates of the Form A and Form B when equilibrated in ethanol under anhydrous and aqueous conditions at 20° C. and 40° C.
Procedure: Composites, prepared from equimolar amounts of Form A and Form B were charged to separate vials and ethanol (13 vol) or ethanol/water (10/3 v/v, 13 vol) were added. The two pairs of mixtures were stirred at 20° C. or 40° C. overnight.

[2] = Effect of elevated humidity, desiccator analysis at equilibrium humidity; conditions: for Δwt. Percent: RH 75-80%; for Output Form designation (XRPD): after exposure to 75 to 80% RH at 18 to 23° C. for 72 h
Description: The effect of elevated humidity (75 to 80% RH at 18 to 23° C.) on the thermally dehydrated Form A residue from the preceding experiment, was examined via conventional desiccator analysis at equilibrium humidity. Compound 1 Form A (ca. 16 mg) was heated at a rate of +10° C./min from 20 to 160° C. to include the first endothermic event and exclude the second event (see FIG. 2). The content of the spent crucible was exposed to 75 to 80% RH (relative humidity) at 18 to 23° C. for 72 h. The corresponding weight changes were recorded and the internal conditions of the humidity enclosures were monitored. The absorbent increased in weight (refer to Table 4), but this was not accompanied by a significant change in the diffraction pattern, or dehydration event by DSC.

[3] = Anhydrous suspension equilibrations of Form A at 20° C. and 40° C.; conditions: stirred 7 to 10 days at 40° C.
Description: Objective: Examine the effect of suspension equilibration of compound 1 under anhydrous conditions at 20° C. and 40° C. and determine the physical form of the products.
Procedure: Compound 1 (ca 50 mg, 1.0 wt) and the appropriate solvent (1000 μl, 20 vol) were charged to separate vessels and two parallel banks of experiments were stirred for 7 to 10 days at 20° C. and 40° C. After this time the products were cooled, isolated by filtration, washed with recycled maturation solvent, dried under reduced pressure at 20° C. and analyzed by XRPD for evidence of alternative crystalline forms.

[4] = Thermal investigations (heating in DSC, residue analysed by XRPD or 1H NMR)
Description: A Mettler Toledo DSC 821 instrument was used for the thermal analysis operating with STARe™ software. The analysis was conducted in […], open aluminum pans, under nitrogen and sample sizes ranged from 1 to 10 mg. Typical analysis method was 20 to 250 at 10° C./minute.
Procedure: First experiment-A sample of compound 1 Form A containing 5.1% w/w water and 0.2% w/w ethanol (ca. 16 mg) was heated at a rate of +10° C./min from 20 to 160° C. to include the first endothermic event and exclude the second event (refer to FIG. 2).
(§1) Procedure: First event: A sample of compound 1 Form C (ca. 7 mg) was heated at a rate of +10° C./min from 20 to 120° C. to include the first endothermic event (refer to FIG. 9). The content of the spent crucible was expressed, the residue was analyzed by XRPD and the diffraction pattern was compared to the input diffraction pattern.
as §1, with “Third” for “Procedure: First”, “5” for “7”, “150°” for “120°”, “multiple thermal events” for “first endothermic event”
Procedure: First event: a sample of compound 1 Form E (ca. 8 mg) was heated at a rate of +10° C./min from 20 to 160° C. to include the first endothermic event and exclude the second event (refer to FIG. 11). The content of the spent crucible was expressed, the residue was analyzed by XRPD and the diffraction pattern was compared to the input diffraction pattern (see FIG. 12).

[5] = Dynamic Vapor Sorption (DVS) analyses; conditions: for Hygroscopicity by DVS: 25° C., RH 0-90-0%; for Weight lost during the pre-equilibration: DVS at 25° C., drying 0% RH for 120 min
Description: Use the following parameters: • Equilibrium: dm/dt: 0.002%/min. (for min: 10 min and max: 180 min). • Drying: 0% RH for 120 min • RH (%) measurement step: 5% • RH (%) measurement step scope: 0-90-0% The criteria for hygroscopicity evaluation are listed in below: DVS analysis was performed on compound 1 Form A and compound 1 Form B to determine the degree of hygroscopicity. The results are provided in FIGS. 13A, FIG. 13B, FIG. 14A and FIG. 14B.

[6] = Suspension equilibration of single Form A and B under production conditions; conditions: 40° C., stirred overnight
Description: Objective: Determine the fates of single Form A and B when equilibrated in ethanol under anhydrous and aqueous conditions at 40° C.
Procedure: Form B and Form A were charged to separate vials. Ethanol/water (10/3 v/v, 13 vol) and ethanol (13 vol) were added, respectively. The mixtures were stirred at 20° C. or 40° C. overnight.

[7] = heated at +10° C./min from 20 to 160° C.

Compound: O=C(NO)c1cnc(N2C[C@@H]3[C@H](C2)[C@H]3NCc2ccc3cc(F)ccc3n2)nc1 [Form A + Form B (1/1 w/w)]
Output form (XRPD) ([1]; Ethanol, 20° C.): B (Major
Output form (XRPD) ([1]; Ethanol, 20° C., listed as composite Form A+B): near complete conversion into Form B
Output form (XRPD) ([1]; Ethanol, 40° C.): Form B
Output form (XRPD) ([1]; Ethanol, 40° C., listed as composite Form A+B): complete turnover into single Form B
Output form (XRPD) ([1]; Ethanol/water (10/3 v/v), 20° C.): Form A
Output form (XRPD) ([1]; Ethanol/water (10/3 v/v), 20° C., listed as composite Form A+B): single Form A
Output form (XRPD) ([1]; Ethanol/water (10/3 v/v), 40° C.): Form A
Output form (XRPD) ([1]; Ethanol/water (10/3 v/v), 40° C., listed as composite Form A+B): single Form A

Compound: O=C(NO)c1cnc(N2C[C@@H]3[C@H](C2)[C@H]3NCc2ccc3cc(F)ccc3n2)nc1 [Form A after heating up to 160° C.]
Δwt. Percent ([2]; 0 h @ 18-23° C.): 0.0% w/w
Δwt. Percent ([2]; 1 h @ 18-23° C.): 14.6% w/w
Δwt. Percent ([2]; 24 hr @ 18-23° C.): 13.2% w/w
Δwt. Percent ([2]; 72 hr @ 18-23° C.): 14.6% w/w
Output Form designation (XRPD) [2]: Isostructural
Output Form designation (XRPD) ([2]; listed as Form A dehydrate): did not revert back to Form A

Compound: O=C(NO)c1cnc(N2C[C@@H]3[C@H](C2)[C@H]3NCc2ccc3cc(F)ccc3n2)nc1 [Form A, N-hydroxy 2-{6-[(6-fluoro-quinolin-2-ylmethyl)-amino]-3-aza-bicyclo[3.1.0]hex-3-yl}pyrimidine-5-carboxamide]
Output form @ 40° C. (XRPD) ([3]; 1,4-dioxane (20 vol)): A + B
Output form @ 40° C. (XRPD) ([3]; 2-Propanol (20 vol)): A + B
Output form @ 40° C. (XRPD) ([3]; Acetone (20 vol)): A + B
Output form @ 40° C. (XRPD) ([3]; Anisole (20 vol)): A + B
Output form @ 40° C. (XRPD) ([3]; Butanol (20 vol)): A + B
Output form @ 40° C. (XRPD) ([3]; Chlorobenzene (20 vol)): A + B
Output form @ 40° C. (XRPD) ([3]; Cumene (20 vol)): A + B
Output form @ 40° C. (XRPD) ([3]; Dichloromethane (20 vol)): A + B
Output form @ 40° C. (XRPD) ([3]; Ethyl acetate (20 vol)): A + B
Output form @ 40° C. (XRPD) ([3]; Ethyl ether (20 vol)): A + B
Output form @ 40° C. (XRPD) ([3]; Heptane (20 vol)): A + B
Output form @ 40° C. (XRPD) ([3]; Isopropyl acetate (20 vol)): A + B
Output form @ 40° C. (XRPD) ([3]; Methyl acetate (20 vol)): A + B
Output form @ 40° C. (XRPD) ([3]; Nitromethane (20 vol)): A + B
Output form @ 40° C. (XRPD) ([3]; Propionitrile (20 vol)): A + B
Output form @ 40° C. (XRPD) ([3]; Tetrahydrofuran (20 vol)): A + B
Output form @ 40° C. (XRPD) ([3]; Trifluorotoluene (20 vol)): A + B
Output form @ 40° C. (XRPD) ([3]; tert-Butylmethyl ether (20 vol)): A + B
Form of residue after heating (XRPD) [4, 7]: consistent with Form B
State after heating (1H NMR) ([4]; heated at +10° C./min from 20 to 230° C., cooled): extensive degradation
Large exothermic event (DSC, confirmed by 1H NMR) ([4]; post heating to 200° C.): consistent with degradation
Hygroscopicity by DVS [5]: neither being hygroscopic; also recorded: not hygroscopic
Weight lost during the pre-equilibration [5]: ~0.25 % w/w
Output form (XRPD) ([6]; Ethanol): converted to Form B
Output form (XRPD) ([6]; Ethanol, listed as Form A (A0822-170-AD1)): Form B

Continued, in another order:

Hygroscopicity by DVS [5]: neither being hygroscopic
Form conversion at high water activity ([5]; 40° C., high water activity, stated among the DVS observations): promoted the conversion into Form A
Weight lost during the pre-equilibration [5]: 0.03 % w/w
Output form (XRPD) ([6]; Ethanol/water (10/3 v/v)): mixture Form A and B
Output form (XRPD) ([6]; Ethanol/water (10/3 v/v), listed as Form B (A0822-170-AC1)): A + B
Compound: O=C(NO)c1cnc(N2C[C@@H]3[C@H](C2)[C@H]3NCc2ccc3cc(F)ccc3n2)nc1 [Form B, N-hydroxy 2-{6-[(6-fluoro-quinolin-2-ylmethyl)-amino]-3-aza-bicyclo[3.1.0]hex-3-yl}pyrimidine-5-carboxamide]

Form of residue after heating (XRPD) ([4]; heated at +10° C./min from 20 to 150° C.): converted into isostructural Form B
Compound: O=C(NO)c1cnc(N2C[C@@H]3[C@H](C2)[C@H]3NCc2ccc3cc(F)ccc3n2)nc1 [Form C, N-hydroxy 2-{6-[(6-fluoro-quinolin-2-ylmethyl)-amino]-3-aza-bicyclo[3.1.0]hex-3-yl}pyrimidine-5-carboxamide]
Form of residue after heating (XRPD) ([4]; heated at +10° C./min from 20 to 120° C.): consistent with an isomorphic desolvate/dehydrate

Form of residue after heating (XRPD) [4, 7]: consistent with Form B
Compound: O=C(NO)c1cnc(N2C[C@@H]3[C@H](C2)[C@H]3NCc2ccc3cc(F)ccc3n2)nc1 [Form E, N-hydroxy 2-{6-[(6-fluoro-quinolin-2-ylmethyl)-amino]-3-aza-bicyclo[3.1.0]hex-3-yl}pyrimidine-5-carboxamide]
